A short description of data set [1]: Colon and plasma mouse pharmacokinetics. Conditions: male Balb/c mice, 10 mg/kg PO; 0.5, 2 and 6 hours. It is filed as in vivo. The protocol:
6 male Balb/c mice were administered 10 mg/kg of compound in 1% HPMC+0.1% Tween-80 by PO administration. At 0.5, 2 and 6 hours after dose administration, animals were anesthetized, and terminal blood samples were collected by cardiac puncture, followed by collection of colon contents and colon tissue.
Blood samples were collected into K2EDTA and stored on wet ice until processed to plasma by centrifugation (12000 rpm at 4° C.). Plasma samples were transferred to cluster tubes and placed on dry ice prior to freezer storage. The colon contents from each animal were collected at each terminal blood collection time point. The colon tissues were flushed with saline and patted dry. The colon and colon content tissues were homogenized using sterile water containing 0.1% formic acid 9:1 (water:tissue, v/w). The homogenized tissues and colon contents were transferred to cluster tubes and placed on dry ice prior to freezer storage. All samples were analyzed using LC/MS/MS against analytical standards.
The composite pharmacokinetic parameters of the compounds were determined by non-compartmental analysis using Phoenix WinNonlin Version 6 (Certara, St. Louis, Mo.) and using mean values from 2 animals/time point. For plasma concentrations below the quantification limit (BQL), the lowest concentration measurable or the BLOQ (below limit of quantification) was used.
A colon to plasma ratio was determined as the ratio of the colon AUC to the plasma AUC.

The test system of data set [2] is IL-2 induced pSTAT5 in thymus. As to the kind of experiment: Systemic target engagement: murine model of IL-2 induced pSTAT5 induction in thymus. The conditions noted are these: PO, 10, 30 and 50 mg/kg. It is filed as in vivo, mouse. An excerpt:
IL-2 is an important cytokine underlying the pathophysiology of gastro-intestinal diseases such as […] bowel disease (IBD; Guan and Zhang. Mediators Inflamm, 2017; 4810258). IL-2 binds to cell surface receptors activating members of the Janus family of kinases (JAK), specifically JAK3, which then phosphorylates STAT5 and subsequently activates further transcription pathways. In this model, a dose of IL-2 was delivered systemically to mice to induce the phosphorylation of STAT5 (pSTAT5) which was then measured as the endpoint.
Adult male Balb/c mice from Harlan were used in the assay. Animals were administered test compound via oral gavage (PO, 10 or 30 mg/kg for single dose studies; 10-60 mg/kg for dose response studies) on the afternoon of the day prior to study and then in the morning on the day of study. Two hours after the second PO dose administration, mice were injected intraperitoneally (i.p.) with 100 μl of an appropriate IL-2 dose (for a total of 1-5 μg/mouse depending upon IL-2 batch; R&D Systems). 90-120 minutes after IL-2 insult, thymus samples were harvested.

In a further data set the test system is splenic NK cells. Put plainly: Immunosuppression effects in mouse splenic natural killer (NK) cells. Conditions: positive control, 30 mg/kg PO, BID.

Structures are written as SMILES.

Description for splenic NK cells: Select compounds were assessed in the mouse splenic cell model following the same treatment paradigm used in the oxazolone-induced colitis model (assay 8).
Adult male Balb/C mice from Harlan were used for the study. The test compound and a Jak3 covalent inhibitor standard 2-propen-1-one, 1-[(2S,5R)-2-methyl-5-(7H-pyrrolo[2,3-d]pyrimidin-4-ylamino)-1-piperidinyl] (30 mg/kg, BID) as a positive control, were dosed orally for three days to naïve mice. Spleens were harvested up to 4 hours post last dose and crushed immediately for cell subtype staining. Prior to fixation, fluorophore-labelled antibodies for CD19 (FITC; B cells), CD3e (PE; pan T cells) and CD49e (APC; NK cells) were incubated with splenocyte samples from each animal to allow for simultaneous, multiple subtype % analysis on the flow cytometer. The number of total spleen cells for each animal was measured by Scepter™ 2.0 Handheld Automated Cell Counter.
The absolute number of lymphocyte subtype population (e.g., splenic B, T and NK cells) was calculated from the percentage of each subtype times the total spleen cells for each animal. A one-way ANOVA, with Fisher's LSD post hoc test, was used to compare the splenic lymphocytes number of the vehicle and test compound groups. The a level was set at p<0.05. Data were presented as the mean±SEM for each group.

Take `C=CC(=O)N1C[C@H](Nc2ncnc3[nH]ccc23)CC[C@@H]1C` [PF-06651600, 2-propen-1-one, 1-[(2S,5R)-2-methyl-5-(7H-pyrrolo[2,3-d]pyrimidin-4-ylamino)-1-piperidinyl], reference compound]: the “colon to plasma ratio (colon AUC to plasma AUC)” value in data set [1] is 2.8. Also, in data set [2], the “inhibition of pSTAT5 induction in the thymus” value is on record as “significant inhibition”. Besides, in the data set on splenic NK cells, the “Splenic NK cell counts” value was “significantly decreased”.

The record behind these values is patent US10392368B2, “Pyrazolo and triazolo bicyclic compounds as JAK kinase inhibitors” (THERAVANCE BIOPHARMA R&D IP, LLC, priority 2017, dated 2019).
